The values below come from patent EP1746090A1, “Sustituted pyrazoline compounds, having predetermined stereochemistry, for reducing triglycerides in blood” (Laboratorios del Dr. Esteve S.A., priority 2005, dated 2007).

The test system of this experiment is male mice B6 Lep ob/ob. In words: In-vivo testing for regulation of triglycerides in blood plasma (obese mice on high fat diet). The following applies: obese mice fed with high fat diet for 7 weeks; 30 mg/kg/day, p.o., 14 days; whole blood, test strips "Lipid panel". The source says:
This effect is probed in obese mice fed with high fat diet. In the following paragraphs the method of this study is described.
The study is done using six weeks old male mice B6 Lep ob/ob, obtained from Charles River (France). Mice are divided in 3 groups: I (control), II (vehicle), III (example 0).
The animals of the group I receive the standard diet (D-12450B, Research Diets, NJ, USA).
The animals of the groups II and III are fed with a High Fat Diet (D-12492, Research Diets, NJ, USA), in both cases for 7 weeks (References 1 and 2).
The animals of the groups III are fed with a High Fat Diet (D-12492, Research Diets, NJ, USA), in both cases for 7 weeks (References 1 and 2).
At the end of the feeding period of 7 weeks, the treatment period (14 days) is started: Group II mice receive the vehicle (10 ml/kg/day, po, of the aqueous solution of acacia gum, 5% W/V). Group III is administered with 30 mg/kg/day, p.o., of the inventive compound (R)-5-(4-chlorophenyl)-1-(2,4-dichlorophenyl)-4,5-dihydro-pyrazole-3-carboxylic acid according to Example 0. […] The three groups of mice have the same diet than in the previous period.
At the end of the 14 days period of treatment, the blood levels of triglicerides of the animals are determined. […]

For the substance “(S)-5-(4-chlorophenyl)-1-(2,4-dichlorophenyl)-4,5-dihydro-pyrazole-3-carboxylic acid [example 0]”, the “blood levels of triglicerides” value was “inhibitor of high blood levels of triglicerides”.
